Measurements reported in patent publication US5696276A, “Process for preparing 5,8-dihydroxynaphthoquinone derivatives, novel 5,8-dihydroxynaphthoquinone derivatives and their use as anticancer agent” (Kuhnil Pharmaceutical Co., Ltd., priority 1993, dated 1997).
Converted amounts (≈) assume the structure as drawn.

Tests used:
L1210 cells = assay: Cytotoxic activity against L1210 cells; type: cell-based; conditions: Mus musculus; L1210 cells, 48 hours, 37° C.; read-out: ED50, cytotoxic activity against L1210
Protocol: To obtain L1210 cells in a logarithmic phase for cytotoxic activity test, in a 250 ml Erlenmeyer flask with a screw cap including Fisher medium warmed to 36° to 37° C. L1210 cells were adjusted to a concentration of 2-3×10^5 cells/ml and then cultured, before 24 hours from the beginning of experiment. Then, the culture solution thus obtained was suspended to prepare a L1210 cell suspension having a concentration of about 0.8-1.0×10^6 cells/ml. Test sample was dissoved in ethanol or dimethylsulfoxide in a certain concentration just before the experiment. 0.1 ml of the sample solution was diluted 10 times with 0.9 ml of a fresh medium. To each screw-capped test tube were added 100, 50, 25 μl, respectively, of the sample dilutions and then added 5 ml of the cell suspension (5×10^4 cells/ml) prepared above to use as the test group. To the test tubes for the control group (2√n: n=number of the samples), only 5 ml of the cell suspension was added. All test tubes were cultured for 48 hours in a CO2 incubator at 37° C. and then the number of cells was counted using a haemacytometer.
(§1) The ED50 value is defined as a concentration (μg/ml) of the sample which inhibits the growth of cancer cells by 50% of the control group and determined according to a method described in NIC's mannual (NIC=National Cancer Institue, U.S.A.). The growth rate Y(%) of cells in the presence of the test sample in each concentration was calculated according to the followign equation: […]
(§2) In the above equation, T means the average cell number per ml in the test group after incubation for 48 hours in the presence of the test samples in each concentration, C means the average cell number per ml in the control group after incubation for 48 hours, and Co means the average cell number per ml in the control group at the beginning of incubation. The Y(%) value at each concentration and log10 value of each concentration were obtained and the regression curve was constructed according to the following equation from those obtained values. In this case, when all the Y(%) value obtained at each concentration is greater than 55% or lower than 45%, the experiment was repeatedly conducted.
(§3) To construct the regression curve Y=A+BX the values A and B were obtained using the following equation. [formula]
(§4) In the above, the value N is the number of selected points which is greater than 2 and lower than, or identical with, the number of cencentration of the test sample, Xi is log(concentration) i, and Yi is the growth ratio at (concentration)i. The value of ED50 was obtained for those obtained slope and intercept.

HL-60 cells = assay: Cytotoxic activity against HL-60 cells; type: cell-based; conditions: Homo sapiens; HL-60 cells, 48 hours, 37° C.; read-out: ED50, cytotoxic activity against HL-60
Protocol: (§5) As in the test for the cytotoxic activity against L1210 cells, the test samples were dissoved in ethanol or dimethylsulfoxide in a certain concentration. 0.1 ml of the sample solution was mixed with 0.9 ml of a fresh medium to prepare the dilutions. To each two test tubes having a screw cap were added 100, 50, 25 μl, respectively, of the sample dilutions by means of a micropipet. To each test tube for the test group and the control group (2√n: n=number of the samples) was added 5 ml of the dilutions of HL-60 cells and K-562 cells which were cultured and activated before 24 hours from the beginning of experiment and then diluted in a concentration of 1×10^5 cells/mi. All test tubes were cultured for 48 hours in a CO2 incubator at 37° C. and then the number of cells was counted using a haemacytometer.
as §1, §2, §3, §4

A549 cancer cells = assay: Cytotoxic activity against A549 cancer cells (sulforhodamin B method); type: cell-based; conditions: Homo sapiens; A549 cells, SRB method, 48 hours; read-out: ED50, cytotoxic activity against A549
Protocol: The cytotoxic activity against A549 cancer cells was determined using a method for measuring sulforhodamin B (SRB), which was developed in the year 1989 by NIC for measuring anticancer activity of the drug in vitro. For the experiment, cells under subculturing were separated from the attached surface with trypsin-CDTA solution and then dispensed into a 24-well flat-bottom microplate (Falcon) so that the number of cells per well is 8×10^4 (A549). The microplate was incubated in a CO2 incubator for 24 hours to attach the dispensed cells to bottom. The medium was removed with aspirator. Then, 100 μl of the solution of the test compounds diluted in a log-dose of 6 kinds of concentration was added to each well containing cells, in a multiple of 3. The microplate was incubated for further 48 hours. In addition, the diluted solution of the test compounds above was filtered through a 0.22 μm filter, before addition to the cells, to keep the experiment under sterilized condition. The cells were incubated with the test compounds for 48 hours and then the medium was removed from each well. 100 μl of 10% trichloroacetic acid (TCA) was added to each well and then the plate was allowed to stand at 4° C. for one hour to fix the cells to the bottom of plate. After fixing the cells, the plate was washed 5 to 6 times with water to completely remove any remaining TCA solution and then dried at room temperature until water is no longer present. To the completely dried plate was added the dying solution of 0.4% SRB dissolved in 1% acetic acid in an amount of 250 μl per well to stain the cells for 30 minutes and then the plate was washed again 5 to 6 times with 1% acetic acid solution to remove the remaining SRB which is not bound to the cells. The stained cell plate was dried again at room temperature. Then, the dying solution was carefully dissolved in a certain amount of 10 mM Tris so that the O.D. value in the control group at 520 nm is 0.8-1.0 Å (optical density), and the optical density at 520nm was determined. The ED50 value was obtained from the determined optical density. To calculate the activity of the drug against cancer cells, the number of cells (Tz) at the beginning of the addition of drug, the number of cells (C) after incubation with the medium in the absence of drug for 48 hours and the number of cells (T) after incubation in the presence of drugs at each concentration for 48 hours were determined.
The anticancer activity of the test compounds was determined form the following equations. Specifically, in the […] the equation (T-Tz)/(C-Tz)×100 was used and in the case of Tz<T the equation (T-Tz)/Tz×100 was used. Then the IC50 value wich is the concentration of drug which inhibits the growth of cancer cells by 50% was calcualted from the above calculated values using a data regressive function of LOTUS programme and the cytotoxic activities of the test compounds were compared with each other.

S-180 sarcoma cells = assay: Animal experiment using Sarcoma S-180 cells (survival of mouse); type: in vivo, male ICR mouse; conditions: ip, S-180 ICR mouse, intraperitoneal, 7 to 8 injections; for responders at 10 µmol/kg / response vs control in vivo at 10 µmol/kg: daily dose 10 μmole (mg/kg/day given per compound); for responders at 15 µmol/kg / response vs control in vivo at 15 µmol/kg: daily dose 15 μmole (mg/kg/day given per compound)
Protocol: In this experiment, healthy male ICR mouse weighing 20 to 25 g were used as test animal and were fed with water and feed without any restriction in the chamber controlled at the temperature of 23° to 24° C. As the feed, the antibiotic-free feed for mouse was used.
S-180 cells which were incubated for 7 days within abdominal cavity of ICR mouse were separated together with ascites. To the separated cells was added sterilized cold physiological saline and the mixture was centrifuged with 400×g for 2 minutes to separate the cell precipitate. The separated cell precipitate was suspended again in sterilized cold physiological saline and then centrifuged to remove the supernatant. Only S-180 cells were taken, excluding any red bllod cells incorporated therein, washed three times with the same method as above, and then suspended to obtain the cell suspension in concentration of 10^7 cells/ml by counting the number of cells with a haemacytometer. Each 0.1 ml of this cell suspension was transplanted in an abdominal cavity.
After 24 hours from the transplantation, mouse were divided so that each group contains 8 to 9 mouse. The test sample was dissolved in a predetermined amount of dimethylsulfoxide to prepare the stock solution which was stored at 4° C. 30 μl of the stock solution was taken and then mixed with 1.5 ml of physiological saline. 0.1 ml of this mixture was intraperitoneally injected to the test animal. To the control group, 2% dimethylsulfoxide-physiological saline solution was injected. Meanwhile, doxorubicin which is used as the comparative drug was dissolved in 2% dimethylsulfoxide-physiological saline solution and then injected in an amount of 0.5 mg(titer)/kg. The schedule for injection comprises a total of 7 to 8 injections in the manner that after the transplantation of cancer cells 0.1 ml of the test sample per a day is administered for 2 to 4 days followed by the rest for one day. The survival rate was calculated on the basis of the date on which all of one control group is died (approximately 18 to 20 days). The survival rate (T/C, %) was calculated by the following equation as proposed in NIC's protocol: [formula]

K-562 cells = assay: Cytotoxic activity against K-562 cells; type: cell-based; conditions: Homo sapiens; K562 cells, 48 hours, 37° C.; read-out: ED50, cytotoxic activity against K562
Protocol: as §5, §1, §2, §3, §4

[1] = 1200 h, read-out: Number of mouse survived for 50 days (converted)

Compound | IC50 (L1210 cells) [µg/mL] | IC50 (HL-60 cells) [µg/mL] | IC50 (A549 cancer cells) [µg/mL] | responders at 10 µmol/kg (S-180 sarcoma cells; [1]) [%] | response vs control in vivo at 10 µmol/kg (S-180 sarcoma cells; read-out: T/C) [%] | responders at 15 µmol/kg (S-180 sarcoma cells; [1]) [%] | response vs control in vivo at 15 µmol/kg (S-180 sarcoma cells; read-out: T/C) [%] | IC50 (K-562 cells) [µg/mL] | responders at 5 µmol/kg (S-180 sarcoma cells; 1200 h, daily dose 5 μmole (mg/kg/day given per compound), read-out: Number of mouse survived for 50 days (converted)) [%] | response vs control in vivo at 5 µmol/kg (S-180 sarcoma cells; daily dose 5 μmole (mg/kg/day given per compound), read-out: T/C) [%]
CC(C)=CCC(OC(=O)C(Cl)(Cl)Cl)C1=CC(=O)c2c(O)ccc(O)c2C1=O (stereo not drawn) [2-(1-trichloroacetyloxy-4-methyl-3-pentenyl)-5,8-dihydroxy-1,4-naphthoquinone] | 0.01 (≈ 0.0231 µM) | 0.3 (≈ 0.692 µM) | 2 (≈ 4.61 µM) | 0 | 134 |  |  |  |  | 
CCCCC(=O)OC(CC=C(C)C)C1=CC(=O)c2c(O)ccc(O)c2C1=O (stereo not drawn) [2-(1-n-pentanoyloxy-4-methyl-3-pentenyl)-5,8-dihydroxy-1,4-naphthoquinone] | 0.2 (≈ 0.537 µM) | 0.6 (≈ 1.61 µM) | 2.5 (≈ 6.71 µM) | 0 | 165 |  |  |  |  | 
CC(C)=CCC(OC(=O)C(c1ccccc1)c1ccccc1)C1=CC(=O)c2c(O)ccc(O)c2C1=O (stereo not drawn) [2-(1-diphenylacetyloxy-4-methyl-3-pentenyl)-5,8-dihydroxy-1,4-naphthoquinone] | 0.2 (≈ 0.414 µM) | 0.4 (≈ 0.829 µM) | 6.3 (≈ 13.1 µM) |  |  | 25 | 208 |  |  | 
CCCC(=O)OC(CC=C(C)C)C1=CC(=O)c2c(O)ccc(O)c2C1=O (stereo not drawn) [2-(1-n-butanoyloxy-4-methyl-3-pentenyl)-5,8-dihydroxy-1,4-naphthoquinone] | 0.01 (≈ 0.0279 µM) | 0.1 (≈ 0.279 µM) | 2.5 (≈ 6.98 µM) | 0 | 181 |  |  |  |  | 
CCCCCCCCCC(=O)OC(CC=C(C)C)C1=CC(=O)c2c(O)ccc(O)c2C1=O (stereo not drawn) [2-(1-n-decanoyloxy-4-methyl-3-pentenyl)-5,8-dihydroxy-1,4-naphthoquinone] | 0.7 (≈ 1.58 µM) | 1.1 (≈ 2.49 µM) | 15 (≈ 33.9 µM) |  |  | 0 | 110 |  |  | 
CC(C)CCOC(CCC(C)C)C1=CC(=O)c2c(O)ccc(O)c2C1=O (stereo not drawn) [2-[1-(3-methylbutoxy)-4-methylpentyl]-5,8-dihydroxy-1,4-naphthoquinone] | 0.2 (≈ 0.555 µM) |  | 1.1 (≈ 3.05 µM) |  |  | 0 | 186 | 0.09 (≈ 0.25 µM) |  | 
CCCCCCCCCCCCC(O)C1=CC(=O)c2c(O)ccc(O)c2C1=O (stereo not drawn) [2-(1-hydroxytridecyl)-5,8-dihydroxy-1,4-naphthoquinone] | 0.3 (≈ 0.772 µM) |  | 4.4 (≈ 11.3 µM) | 0 | 113 |  |  | 0.4 (≈ 1.03 µM) |  | 
CCOC(CCC(C)C)C1=CC(=O)c2c(O)ccc(O)c2C1=O (stereo not drawn) [2-(1-ethoxy-4-methylpentyl)-5,8-dihydroxy-1,4-naphthoquinone] | 0.04 (≈ 0.126 µM) |  | 1.7 (≈ 5.34 µM) | 0 | 105 |  |  | 0.08 (≈ 0.251 µM) |  | 
COC(CCC(C)C)C1=CC(=O)c2c(O)ccc(O)c2C1=O (stereo not drawn) [2-(1-methoxy-4-methylpentyl)-5,8-dihydroxy-1,4-naphthoquinone] | 0.05 (≈ 0.164 µM) |  | 1.5 (≈ 4.93 µM) | 0 | 126 |  |  | 0.07 (≈ 0.23 µM) |  | 
CC(=O)OC(CCC(C)C)C1=CC(=O)c2c(O)ccc(O)c2C1=O (stereo not drawn) [2-(1-acetoxy-4-methylpentyl)-5,8-dihydroxy-1,4-naphthoquinone] | 0.05 (≈ 0.15 µM) |  | 1.5 (≈ 4.51 µM) |  |  |  |  | 0.07 (≈ 0.211 µM) | 14.3 | 188
CC/C=C/CC(=O)OC(CCCCCCCCC)C1=CC(=O)c2c(O)ccc(O)c2C1=O (stereo not drawn) [2-[1-(3-trans-hexenoyloxy)-decyl]-5,8-dihydroxy-1,4-naphthoquinone] | 0.6 (≈ 1.36 µM) |  | 7.1 (≈ 16 µM) | 0 | 130 |  |  | 0.6 (≈ 1.36 µM) |  | 
CCCCCCCC(=O)OC(CCCCC)C1=CC(=O)c2c(O)ccc(O)c2C1=O (stereo not drawn) [2-(1-octanoyloxyhexyl)-5,8-dihydroxy-1,4-naphthoquinone] | 0.2 (≈ 0.48 µM) |  | 2.1 (≈ 5.04 µM) |  |  | 0 | 95 | 0.3 (≈ 0.72 µM) |  | 
